Test results from patent publication US8765730B2 (Hoffmann-La Roche Inc, priority 2010, dated 2014).
pEC50: −log10 of the molar value. Read-outs that look alike come from different tables or passages of the source.

Target: T1, human GPBAR1 receptor (Homo sapiens, UniProt Q8TDU6)
T1 construct: expressed in transfected cells
T1 sequence (Q8TDU6 1-330): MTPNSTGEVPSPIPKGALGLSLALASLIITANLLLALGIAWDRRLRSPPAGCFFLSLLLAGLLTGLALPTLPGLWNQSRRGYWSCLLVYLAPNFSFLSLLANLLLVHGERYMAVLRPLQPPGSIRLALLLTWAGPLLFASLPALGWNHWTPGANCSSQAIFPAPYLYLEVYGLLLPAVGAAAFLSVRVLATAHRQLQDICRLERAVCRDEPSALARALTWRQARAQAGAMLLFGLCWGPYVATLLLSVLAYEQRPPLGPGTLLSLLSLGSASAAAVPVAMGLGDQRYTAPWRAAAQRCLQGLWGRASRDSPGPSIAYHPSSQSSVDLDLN
Test: functional cAMP assay in CHO-dhfr(minus) cells expressing human GPBAR1 receptors
Format: cell-based
Conditions: 30 min at 30° C.
How it was run: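 Agonist cAMP read-out: stable GPBAR1 CHO-dhfr− clone, 30 min compound exposure at 30° C following 30 min IBMX (1 mM) preincubation in Krebs Ringer bicarbonate. Time-resolved energy-transfer detection gives EC50; parental CHO cells serve as counter-screen.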

[1] = human EC50, functional cAMP assay
[2] = functional cAMP assay, read-out: human EC50

Compound | pEC50 [1] | pEC50 [2]
Cc1cc(/C(C[C@H](c2ccc(N3CCC(O)CC3)cc2)c2ccccc2C)=N/O)ccn1 [Example 145, (E,R)-3-(4-(4-Hydroxypiperidin-1-yl)phenyl)-1-(2-methylpyridin-4-yl)-3-o-tolylpropan-1-one oxime] | 9.00 | –
Cc1ccccc1[C@H](C/C(=N\O)c1cc(Cl)nc(Cl)c1)c1ccc(-c2ccc(C(=O)O)cc2)cc1 [Example 146, (E,R)-4′-(3-(2,6-Dichloropyridin-4-yl)-3-(hydroxyimino)-1-o-tolylpropyl)biphenyl-4-carboxylic acid] | 6.79 | –
Cc1cc(/C(CC(c2ccc(Br)cc2)c2ccc(Cl)cc2F)=N/O)ccn1 (stereo not drawn) [Example 147, (E)-3-(4-Bromo-phenyl)-3-(4-chloro-2-fluoro-phenyl)-1-(2-methyl-pyridin-4-yl)-propan-1-one oxime] | 6.33 | –
Cc1ccccc1C(C/C(=N\O)c1cc(C)c(O)c(C)c1)c1ccc(Br)cc1 (stereo not drawn) [Example 152, (E)-3-(4-Bromo-phenyl)-1-(4-hydroxy-3,5-dimethyl-phenyl)-3-o-tolyl-propan-1-one oxime] | 5.29 | –
CC(/C(=N\O)c1ccncc1)C(c1ccccc1)c1ccccc1 (stereo not drawn) [Example 153, (E)-2-Methyl-3,3-diphenyl-1-pyridin-4-yl-propan-1-one oxime] | 6.82 | –
O/N=C(\CC(O)(c1ccccc1)c1ccccc1)c1ccncc1 [Example 154, (E)-3-Hydroxy-3,3-diphenyl-1-pyridin-4-yl-propan-1-one oxime] | – | 6.26
O/N=C(/CC(O)(c1ccccc1)c1ccccc1)c1ccncc1 [Example 155, (Z)-3-Hydroxy-3,3-diphenyl-1-pyridin-4-yl-propan-1-one oxime] | – | 5.06
Cc1ccccc1C(C/C(=N\O)c1cnccn1)c1ccc(Br)cc1 (stereo not drawn) [Example 156, (E)-3-(4-Bromo-phenyl)-1-pyrazin-2-yl-3-o-tolyl-propan-1-one oxime] | 5.21 | –
Cc1ccccc1C(C/C(=N\O)c1ccnc2cc(Cl)ccc12)c1ccc(Br)cc1 (stereo not drawn) [Example 157, (E)-3-(4-Bromo-phenyl)-1-(7-chloro-quinolin-4-yl)-3-o-tolyl-propan-1-one oxime] | 5.44 | –
COc1ccc(C2(C/C(=N\O)c3ccnc(C)c3)CCCCC2)cc1 [Example 158, (E)-2-[1-(4-Methoxy-phenyl)-cyclohexyl]-1-(2-methyl-pyridin-4-yl)-ethanone oxime] | 5.99 | –
COc1ccc(C2(C/C(=N/O)c3ccnc(C)c3)CCCCC2)cc1 [Example 159, (Z)-2-[1-(4-Methoxy-phenyl)-cyclohexyl]-1-(2-methyl-pyridin-4-yl)-ethanone oxime] | 5.25 | –
O=c1ccc(/C(CC(c2ccccc2)c2ccccc2)=N/O)c[nH]1 [Example 160, 5-{1-[(E)-Hydroxyimino]-3,3-diphenyl-propyl}-1H-pyridin-2-one] | 5.88 | –
Cn1cc(/C(CC(c2ccccc2)c2ccccc2)=N/O)ccc1=O [Example 161, 5-{1-[(E)-Hydroxyimino]-3,3-diphenyl-propyl}-1-methyl-1H-pyridin-2-one] | 6.92 | –
CCn1cc(/C(CC(c2ccc(Br)cc2)c2ccccc2C)=N/O)ccc1=O (stereo not drawn) [Example 164, 5-{3-(4-Bromo-phenyl)-1-[(E)-hydroxyimino]-3-o-tolyl-propyl}-1-ethyl-1H-pyridin-2-one] | 8.40 | –
CCn1cc(/C(CC(c2ccc(Br)cc2)c2ccccc2C)=N\O)ccc1=O (stereo not drawn) [Example 165, 5-{3-(4-Bromo-phenyl)-1-[(Z)-hydroxyimino]-3-o-tolyl-propyl}-1-ethyl-1H-pyridin-2-one] | 6.26 | –
CC(C)CC(C/C(=N\O)c1ccc(=O)n(C)c1)c1ccc(Br)cc1 (stereo not drawn) [Example 170, 5-{3-(4-Bromo-phenyl)-1-[(E)-hydroxyimino]-5-methyl-hexyl}-1-methyl-1H-pyridin-2-one] | 6.34 | –
CC(C)CC(C/C(=N/O)c1ccc(=O)n(C)c1)c1ccc(Br)cc1 (stereo not drawn) [Example 171, 5-{3-(4-Bromo-phenyl)-1-[(Z)-hydroxyimino]-5-methyl-hexyl}-1-methyl-1H-pyridin-2-one] | 5.40 | –
Cn1cc(/C(CC(c2ccc(Br)cc2)C2CCCC2)=N/O)ccc1=O (stereo not drawn) [Example 172, 5-{3-(4-Bromo-phenyl)-3-cyclopentyl-1-[(E)-hydroxyimino]-propyl}-1-methyl-1H-pyridin-2-one] | 7.25 | –
Cn1cc(/C(CC(c2ccc(Br)cc2)C2CCCC2)=N\O)ccc1=O (stereo not drawn) [Example 173, 5-{3-(4-Bromo-phenyl)-3-cyclopentyl-1-[(Z)-hydroxyimino]-propyl}-1-methyl-1H-pyridin-2-one] | 5.71 | –
CCCC(C/C(=N\O)c1ccc(=O)n(C)c1)c1ccc(Br)cc1 (stereo not drawn) [Example 174, 5-{3-(4-Bromo-phenyl)-1-[(E)-hydroxyimino]-hexyl}-1-methyl-1H-pyridin-2-one] | 6.57 | –
Cn1cc(/C(CC(CCCC(F)(F)F)c2ccc(Br)cc2)=N/O)ccc1=O (stereo not drawn) [Example 175, 5-{3-(4-Bromo-phenyl)-7,7,7-trifluoro-1-[(E)-hydroxyimino]-heptyl}-1-methyl-1H-pyridin-2-one] | 5.88 | –
C=CCC(C/C(=N\O)c1ccc(=O)n(C)c1)c1ccc(Br)cc1 (stereo not drawn) [Example 176, 5-{3-(4-Bromo-phenyl)-1-[(E)-hydroxyimino]-hex-5-enyl}-1-methyl-1H-pyridin-2-one] | 6.43 | –
CCCCC(C/C(=N\O)c1ccc(=O)n(C)c1)c1ccc(Br)cc1 (stereo not drawn) [Example 177, 5-{3-(4-Bromo-phenyl)-1-[(E)-hydroxyimino]-heptyl}-1-methyl-1H-pyridin-2-one] | 6.59 | –
Cn1cc(/C(CC(c2ccc(Br)cc2)C2CCCCC2)=N/O)ccc1=O (stereo not drawn) [Example 178, 5-{3-(4-Bromo-phenyl)-3-cyclohexyl-1-[(E)-hydroxyimino]-propyl}-1-methyl-1H-pyridin-2-one] | 7.38 | –
Cn1cc(/C(CC(c2ccc(Br)cc2)C2CCC2)=N/O)ccc1=O (stereo not drawn) [Example 179, 5-{3-(4-Bromo-phenyl)-3-cyclobutyl-1-[(E)-hydroxyimino]-propyl}-1-methyl-1H-pyridin-2-one] | 6.78 | –
Cn1cc(/C(CC(Cc2ccc(OC(F)(F)F)cc2)c2ccc(Br)cc2)=N/O)ccc1=O (stereo not drawn) [Example 180, 5-[3-(4-Bromo-phenyl)-1-[(E)-hydroxyimino]-4-(4-trifluoromethoxy-phenyl)-butyl]-1-methyl-1H-pyridin-2-one] | 5.46 | –
CCCC(C/C(=N\O)c1ccc(=O)n(C)c1)c1ccc(Br)cc1F (stereo not drawn) [Example 191, 5-{3-(4-Bromo-2-fluoro-phenyl)-1-[(E)-hydroxyimino]-hexyl}-1-methyl-1H-pyridin-2-one] | 6.43 | –
Cn1cc(/C(CC(c2ccc(Br)cc2F)C2CCCC2)=N/O)ccc1=O (stereo not drawn) [Example 192, 5-{3-(4-Bromo-2-fluoro-phenyl)-3-cyclopentyl-1-[(E)-hydroxyimino]-propyl}-1-methyl-1H-pyridin-2-one] | 6.97 | –
Cc1ccccc1C(C/C(=N\O)c1ccc(=O)n(C)c1)c1ccc(Br)cc1F (stereo not drawn) [Example 193, 5-{3-(4-Bromo-2-fluoro-phenyl)-1-[(E)-hydroxyimino]-3-o-tolyl-propyl}-1-methyl-1H-pyridin-2-one] | 7.72 | –
Cn1cc(/C(CC(c2ccccc2Cl)C2CCCC2)=N/O)ccc1=O (stereo not drawn) [Example 197, 5-{3-(2-Chloro-phenyl)-3-cyclopentyl-1-[(E)-hydroxyimino]-propyl}-1-methyl-1H-pyridin-2-one] | 7.92 | –
